Experimental data: US20210112813A1, “HERBICIDAL COMPOSITION AND USE THEREOF” (NANTONG JIANGSHAN AGROCHEMICAL & CHEMICALS CO., LTD., priority 2019, published 2021)

Assays:
Assay type in all cases: in vivo
[1] = test system: Bristlegrass; assay: Greenhouse pot test, pre-emergence soil treatment, visual control effect 30 days after treatment, Gowing method
Method: (§1) In the present application, indoor combined action of the compound of herbicide active component A and B on weeds was measured to determine the combined effect of the composition on weeds, wherein the structure of the active component A was as follows:
(§2) The weed cultivation method was as follows: quantitative weed seeds abutilon and bristlegrass were respectively sown in a paper cup filled with nutrient soil with a diameter of 7 cm, and then cultivated in the greenhouse after covering the soil, suppressing and watering. The post-emergence stem and leaf treatment was performed when the grass weeds grew to 5-7 leaf stage, broad-leaved weeds grew to 6-8 leaf stage; the pre-emergence soil treatment was performed the second day after sowing, and the early post-emergence treatment was performed after sowing and before emergence; the experiment was repeated 3 times. After the treatment and drug solution naturally dried, the weeds were placed in the greenhouse to be managed according to conventional methods. According to the suppression or death of the weeds, a visual control effect investigation was conducted 30 days after the treatment. The application adopted the Gowing method to evaluate the combined effect of the proposed composition.
(§3) X—Weed control effect when the amount of herbicide component A is P;
(§4) Y—Weed control effect when the amount of herbicide component B is Q;
(§5) E0—Theoretical control effect when the amount of herbicide component A is […];
(§6) E—The measured control effect after the herbicide component A and the herbicide component B are mixed according to the above ratio.
(§7) When E−E0>10%, it is synergism; when E−E0<−10%, it is antagonism; when E−E0 value is between ±10%, it is addition.

[2] = test system: Lambsquarters; assay: as above
[3] = test system: Amaranthusretroflexus; assay: Field plot test, non-cultivated weeds, pre-emergence soil treatment; conditions: Table 8, dose 600 ga.i./hm^2
Method: (§8) The present application also conducted a medicinal efficacy test on weeds on the formulation examples containing herbicide active component A and active component B by the field plot test method, and clarified the control effect of the composition on non-cultivated weeds.
(§9) According to the different components of different formulation examples, pre-emergence soil treatment, early post-emergence and post-emergence stem and leaf spray treatment were carried out respectively. The spraying device was Singapore Linong HD400 hand-operating knapsack sprayer (No. H17001), working pressure: […], spray rate: 640 mL/min, adjustable cone spraying nozzle (325787), spraying nozzle height: 0.5 m, spray width: 0.85 m, walking speed: about 16.7 m/min, and spray volume: […];

[4] = test system: Bristlegrass; assay: as above; conditions: Table 8, dose 600 ga.i./hm^2
Method: as §8, §9

[5] = test system: Crabgrass; assay: as above; conditions: Table 8, dose 600 ga.i./hm^2
Method: as §8, §9

[6] = test system: Lambsquarters; assay: as above; conditions: Table 8, dose 600 ga.i./hm^2
Method: as §8, §9

[7] = test system: Bristlegrass; assay: Greenhouse pot test (treatment timing not given, Tables 6 and 7), visual control effect, Gowing method
Method: as §1, §2, §3, §4, §5, §6, §7

[8] = test system: Amaranthusretroflexus; assay: Greenhouse pot test (treatment timing not given, Table 7), visual control effect, Gowing method
[9] = test system: Abutilon; assay: Field plot test, non-cultivated weeds, post-emergence stem and leaf spray; conditions: Table 10, dose 100 ga.i./hm^2
Method: as §8, §9

[10] = test system: Amaranthusretroflexus; assay: as above; conditions: Table 10, dose 100 ga.i./hm^2
Method: as §8, §9

[11] = test system: Bristlegrass; assay: as above; conditions: Table 10, dose 100 ga.i./hm^2
Method: as §8, §9

[12] = test system: Echinochloacrusgalli; assay: as above; conditions: Table 10, dose 100 ga.i./hm^2
Method: as §8, §9

[13] = test system: Abutilon; assay: Greenhouse pot test (treatment timing not given, Table 6), visual control effect, Gowing method
Method: as §1, §2, §3, §4, §5, §6, §7

[14] = test system: Abutilon; assay: Greenhouse pot test, pre-emergence soil treatment, visual control effect 30 days after treatment, Gowing method
Method: as §1, §2, §3, §4, §5, §6, §7

[15] = test system: Abutilon; assay: Greenhouse pot test, post-emergence stem and leaf treatment, visual control effect 30 days after treatment, Gowing method
Method: as §1, §2, §3, §4, §5, §6, §7

[16] = test system: Bristlegrass; assay: as above
Method: as §1, §2, §3, §4, §5, §6, §7

[17] = test system: Abutilon; assay: Field plot test, non-cultivated weeds, early post-emergence
Method: as §8, §9

[18] = test system: Amaranthusretroflexus; assay: as above
Method: as §8, §9

[19] = test system: Bristlegrass; assay: as above
Method: as §8, §9

[20] = test system: Echinochloacrusgalli; assay: as above
Method: as §8, §9

## CCc1cccc(C)c1N(C(=O)CCl)C(C)COC (stereo not shown) [metolachlor]
[1]; Table 2, dose 90 ga.i./hm^2
  Measured value E: 40%
[1]; Table 2, dose 135 ga.i./hm^2
  Measured value E: 60%
[2]; Table 2, dose 90 ga.i./hm^2
  Measured value E: 50%
[2]; Table 2, dose 135 ga.i./hm^2
  Measured value E: 55%
[3]
  Control effect, Amaranthusretroflexus: 60
[4]
  Control effect, Bristlegrass: 45
[5]
  Control effect, Crabgrass: 60
[6]
  Control effect, Lambsquarters: 50

## COCC(C)N(C(=O)CCl)c1c(C)csc1C (stereo not shown) [Dimethoxamide]
[1]; Table 1, dose 75 ga.i./hm^2
  Measured value E: 25%
[1]; Table 1, dose 150 ga.i./hm^2
  Measured value E: 40%
[2]; Table 1, dose 75 ga.i./hm^2
  Measured value E: 20%
[2]; Table 1, dose 150 ga.i./hm^2
  Measured value E: 35%
[3]
  Control effect, Amaranthusretroflexus: 55
[4]
  Control effect, Bristlegrass: 50
[5]
  Control effect, Crabgrass: 70
[6]
  Control effect, Lambsquarters: 70

## CCOc1cc(Oc2ccc(C(F)(F)F)cc2Cl)ccc1[N+](=O)[O-] [Oxyfluorfen]
[7]; Table 7, dose 22.5 ga.i./hm^2
  Measured value E: 15%
[7]; Table 7, dose 45 ga.i./hm^2
  Measured value E: 50%
[8]; dose 22.5 ga.i./hm^2
  Measured value E: 30%
[8]; dose 45 ga.i./hm^2
  Measured value E: 60%
[9]
  Control effect, Abutilon: 80
[10]
  Control effect, Amaranthusretroflexus: 80
[11]
  Control effect, Bristlegrass: 65
[12]
  Control effect, Echinochloacrusgalli: 85

## CP(=O)(O)CCC(N)C(=O)O (stereo not shown) [Glufosinate-ammonium]
[7]; Table 6, dose 30 ga.i./hm^2
  Measured value E: 30%
[7]; Table 6, dose 120 ga.i./hm^2
  Measured value E: 55%
[13]; dose 30 ga.i./hm^2
  Measured value E: 40%
[13]; dose 120 ga.i./hm^2
  Measured value E: 60%
[9]
  Control effect, Abutilon: 65
[10]
  Control effect, Amaranthusretroflexus: 70
[11]
  Control effect, Bristlegrass: 50
[12]
  Control effect, Echinochloacrusgalli: 60

## Cn1nc(C(F)(F)F)c(CS(=O)(=O)C2=NOC(C)(C)C2)c1OC(F)F [Pyroxasulfone]
[14]; Table 4, dose 90 ga.i./hm^2
  Measured value E: 40%
[14]; Table 4, dose 180 ga.i./hm^2
  Measured value E: 55%
[1]; Table 4, dose 90 ga.i./hm^2
  Measured value E: 60%
[1]; Table 4, dose 180 ga.i./hm^2
  Measured value E: 75%
[15]; Table 5, dose 45 ga.i./hm^2
  Measured value E: 50%
[15]; Table 5, dose 90 ga.i./hm^2
  Measured value E: 65%
[16]; Table 5, dose 45 ga.i./hm^2
  Measured value E: 70%
[16]; Table 5, dose 90 ga.i./hm^2
  Measured value E: 85%
[17]; Table 9, dose 200 ga.i./hm^2
  Control effect, Abutilon: 30
[18]; Table 9, dose 200 ga.i./hm^2
  Control effect, Amaranthusretroflexus: 60
[19]; Table 9, dose 200 ga.i./hm^2
  Control effect, Bristlegrass: 35
[20]; Table 9, dose 200 ga.i./hm^2
  Control effect, Echinochloacrusgalli: 15

## CCc1cnc(C2=NC(C)(C(C)C)C(=O)N2)c(C(=O)O)c1 (stereo not shown) [Imazethapyr]
[14]; Table 4, dose 45 ga.i./hm^2
  Measured value E: 5%
[14]; Table 4, dose 90 ga.i./hm^2
  Measured value E: 25%
[1]; Table 4, dose 45 ga.i./hm^2
  Measured value E: 30%
[1]; Table 4, dose 90 ga.i./hm^2
  Measured value E: 45%
[15]; Table 5, dose 22.5 ga.i./hm^2
  Measured value E: 10%
[15]; Table 5, dose 45 ga.i./hm^2
  Measured value E: 20%
[16]; Table 5, dose 22.5 ga.i./hm^2
  Measured value E: 45%
[16]; Table 5, dose 45 ga.i./hm^2
  Measured value E: 50%
[17]; Table 9, dose 100 ga.i./hm^2
  Control effect, Abutilon: 45
[18]; Table 9, dose 100 ga.i./hm^2
  Control effect, Amaranthusretroflexus: 70
[19]; Table 9, dose 100 ga.i./hm^2
  Control effect, Bristlegrass: 50
[20]; Table 9, dose 100 ga.i./hm^2
  Control effect, Echinochloacrusgalli: 60

## Acetofluran
[7]; Table 7, dose 60 ga.i./hm^2
  Measured value E: 5%
[7]; Table 7, dose 90 ga.i./hm^2
  Measured value E: 30%
[8]; dose 60 ga.i./hm^2
  Measured value E: 35%
[8]; dose 90 ga.i./hm^2
  Measured value E: 55%
[9]
  Control effect, Abutilon: 75
[10]
  Control effect, Amaranthusretroflexus: 75
[11]
  Control effect, Bristlegrass: 55
[12]
  Control effect, Echinochloacrusgalli: 70

## CCc1cccc(C)c1N(C(=O)CCl)[C@@H](C)COC [S-metolachlor]
[1]; Table 2, dose 90 ga.i./hm^2
  Measured value E: 35%
[1]; Table 2, dose 135 ga.i./hm^2
  Measured value E: 60%
[2]; Table 2, dose 90 ga.i./hm^2
  Measured value E: 45%
[2]; Table 2, dose 135 ga.i./hm^2
  Measured value E: 65%
[3]
  Control effect, Amaranthusretroflexus: 75
[4]
  Control effect, Bristlegrass: 60
[5]
  Control effect, Crabgrass: 70
[6]
  Control effect, Lambsquarters: 50

## CP(=O)(O)CC[C@H](N)C(=O)O.N [Glufosinate-P-ammonium]
[7]; Table 6, dose 30 ga.i./hm^2
  Measured value E: 40%
[7]; Table 6, dose 120 ga.i./hm^2
  Measured value E: 65%
[13]; dose 30 ga.i./hm^2
  Measured value E: 45%
[13]; dose 120 ga.i./hm^2
  Measured value E: 65%
[9]
  Control effect, Abutilon: 70
[10]
  Control effect, Amaranthusretroflexus: 80
[11]
  Control effect, Bristlegrass: 45
[12]
  Control effect, Echinochloacrusgalli: 60

## COC[C@H](C)N(C(=O)CCl)c1c(C)csc1C [Dimethoxamid-P]
[1]; Table 1, dose 75 ga.i./hm^2
  Measured value E: 30%
[1]; Table 1, dose 150 ga.i./hm^2
  Measured value E: 55%
[2]; Table 1, dose 75 ga.i./hm^2
  Measured value E: 35%
[2]; Table 1, dose 150 ga.i./hm^2
  Measured value E: 50%
[3]
  Control effect, Amaranthusretroflexus: 80
[4]
  Control effect, Bristlegrass: 55
[5]
  Control effect, Crabgrass: 70
[6]
  Control effect, Lambsquarters: 75
